From PMC10353187, “Discovery of a new potent oxindole multi-kinase inhibitor among a series of designed 3-alkenyl-oxindoles with ancillary carbonic anhydrase inhibitory activity as antiproliferative agents” (BMC Chemistry, 2023)

Legend:
Test in all cases: NCI-60 single-dose antiproliferative assay (SRB)
Type in all cases: cell-based
SK-MEL-2 = conditions: Homo sapiens; 10 μM single dose; SK-MEL-2, Melanoma; read-out: Cell Growth inhibition Percent
Procedure, shortened: (§1)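 The tumour lines, maintained in RPMI 1640 supplemented with 5% fetal bovine serum, received each compound at one concentration (10 µM) for 48 h at 37 °C. Cell mass was quantified by SRB binding (515 nm) and expressed as percentage growth inhibition.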

T-47D = conditions: Homo sapiens, T47D, 10 μM single dose, Breast cancer, read-out: Cell Growth inhibition Percent
Procedure, shortened: as §1

BT-549 = conditions: Homo sapiens; 10 μM single dose; BT-549, Breast cancer; read-out: Cell Growth inhibition Percent
Procedure, shortened: as §1

SNB-19 = conditions: Homo sapiens; 10 μM single dose; SNB-19, CNS cancer; read-out: Cell Growth inhibition Percent
Procedure, shortened: as §1

UACC-62 = conditions: Homo sapiens; 10 μM single dose; UACC-62, Melanoma; read-out: Cell Growth inhibition Percent
Procedure, shortened: as §1

NCI-H322M = conditions: Homo sapiens, 10 μM single dose, Non-small cell lung cancer, read-out: Cell Growth inhibition Percent
Procedure, shortened: as §1

A498 = conditions: Homo sapiens; 10 μM single dose; A498, Renal cancer; read-out: Cell Growth inhibition Percent
Procedure, shortened: as §1

MALME-3 M = conditions: Homo sapiens, 10 μM single dose, Melanoma, read-out: Cell Growth inhibition Percent
Procedure, shortened: as §1

HS 578T = conditions: Homo sapiens, 10 μM single dose, Breast cancer, read-out: Cell Growth inhibition Percent
Procedure, shortened: as §1

SW-620 = conditions: Homo sapiens; 10 μM single dose; SW-620, Colon cancer; read-out: Cell Growth inhibition Percent
Procedure, shortened: as §1

OVCAR-5 = conditions: Homo sapiens; 10 μM single dose; OVCAR-5, Ovarian Cancer; read-out: Cell Growth inhibition Percent
Procedure, shortened: as §1

786-0 = conditions: Homo sapiens; 10 μM single dose; 786-0, Renal cancer; read-out: Cell Growth inhibition Percent
Procedure, shortened: as §1

MDA-MB-468 = conditions: Homo sapiens; 10 μM single dose; MDA-MB-468, Breast cancer; read-out: Cell Growth inhibition Percent
Procedure, shortened: as §1

HCT-15 = conditions: Homo sapiens; 10 μM single dose; HCT-15, Colon cancer; read-out: Cell Growth inhibition Percent
Procedure, shortened: as §1

OVCAR-8 = conditions: Homo sapiens; 10 μM single dose; OVCAR-8, Ovarian Cancer; read-out: Cell Growth inhibition Percent
Procedure, shortened: as §1

NCI-H460 = conditions: Homo sapiens; 10 μM single dose; NCI-H460, Non-small cell lung cancer; read-out: Cell Growth inhibition Percent
Procedure, shortened: as §1

K-562 = conditions: Homo sapiens, K562; 10 μM single dose; K-562, Leukemia; read-out: Cell Growth inhibition Percent
Procedure, shortened: as §1

OVCAR-3 = conditions: Homo sapiens; 10 μM single dose; OVCAR-3, Ovarian Cancer; read-out: Cell Growth inhibition Percent
Procedure, shortened: as §1

Row | Compound | inhibition at 10 µM (SK-MEL-2) [%] | inhibition at 10 µM (T-47D) [%] | inhibition at 10 µM (BT-549) [%] | inhibition at 10 µM (SNB-19) [%] | inhibition at 10 µM (UACC-62) [%] | inhibition at 10 µM (NCI-H322M) [%] | inhibition at 10 µM (A498) [%] | inhibition at 10 µM (MALME-3 M) [%] | inhibition at 10 µM (HS 578T) [%] | inhibition at 10 µM (SW-620) [%] | inhibition at 10 µM (OVCAR-5) [%] | inhibition at 10 µM (786-0) [%] | inhibition at 10 µM (MDA-MB-468) [%] | inhibition at 10 µM (HCT-15) [%] | inhibition at 10 µM (OVCAR-8) [%] | inhibition at 10 µM (NCI-H460) [%] | inhibition at 10 µM (K-562) [%] | inhibition at 10 µM (OVCAR-3) [%]
1 | NS(=O)(=O)N/C=C1/C(=O)Nc2ccccc21 [Compound 5, 3-(sulfamidmethylene)indoline-2-one] | 2.36 | 7.19 | 0.96 | 0.31 | 4.35 | 3.18 | – | – | – | – | – | – | – | – | – | – | – | –
2 | O=C1Nc2ccccc2C1=CNc1ccc(C(=O)O)cc1 [Compound 4c, 4-{[(2-Oxoindolin-3-ylidene)methyl]amino}benzoic acid] | – | – | – | – | – | – | 20.1 | 0.23 | 0.5 | 4.95 | 0.03 | 4.08 | – | – | – | – | – | –
3 | O=C1Nc2ccccc2C1=CNc1ccc(CNc2ccc(S(=O)(=O)Nc3ncccn3)cc2)cc1 [Compound 11b, 4-{[4-({[2-Oxoindolin-3-ylidene]methyl}amino)benzyl]amino}-N-(pyrimidin-2-yl)benzenesulfonamide] | – | 27.5 | 6.46 | – | 3.27 | – | – | – | – | 4.6 | – | – | 7.66 | 9.43 | 1.39 | 4.26 | 32.8 | –
4 | NS(=O)(=O)c1ccc(NCc2ccc(NC=C3C(=O)Nc4ccccc43)cc2)cc1 [Compound 11a, 4-{[4-({[2-Oxoindolin-3-ylidene]methyl}amino)benzyl]amino}benzenesulfonamide] | – | 6.76 | – | – | – | – | – | 3.16 | – | – | – | 0.56 | – | – | – | – | 0.06 | –
5 | NS(=O)(=O)c1nnc(NC=C2C(=O)Nc3ccccc32)s1 [Compound 4d, 5-{[(2-Oxoindolin-3-ylidene)methyl]amino}-1,3,4-thiadiazole-2-sulfonamide] | – | 14.8 | 1.21 | – | 3.05 | – | – | – | – | – | – | 1.8 | – | – | 0.12 | – | – | –
6 | O=C1Nc2ccccc2C1=CNc1ccc(C(=O)Nc2ccc(S(=O)(=O)Nc3ncccn3)cc2)cc1 [Compound 9b, 4-{[(2-Oxoindolin-3-ylidene)methyl]amino}-N-{4-[N-(pyrimidin-2-yl)sulfamoyl]phenyl}benzamide] | – | – | 27.1 | – | 7.84 | – | 9.11 | 2.09 | – | – | – | 4.99 | – | – | – | 1.64 | 3.5 | –
7 | O=C(Nc1ccc(NC=C2C(=O)Nc3ccccc32)cc1)Nc1nccs1 [Compound 15c, 1-{4-[((2-Oxoindolin-3-ylidene)methyl)amino]phenyl}-3-(thiazol-2-yl)urea] | 37.9 | 58.8 | – | 69 | 75.1 | 47.2 | 108 | 53.1 | 68.5 | 78.6 | 39.6 | 47.1 | 102 | 71 | 44.3 | 83.2 | 82.7 | 84.6
8 | O=C1Nc2ccccc2C1=CNc1ccc(C(=O)C=CNc2nccs2)cc1 [Compound 13c, 3-{[(4-{3-[Thiazol-2-ylamino]acryloyl}phenyl)amino]methylene}indolin-2-one] | – | – | 13.6 | – | – | – | – | – | – | – | – | – | 23.5 | 12 | – | 7.04 | 24.8 | 3.91
